From publication PMC8847371 (Nature Communications, 2022)
Where “and” joins values, the source holds several entries; their conditions need not be identical. Equal values may be shown once.

Tested on: SARS-CoV-2 B.1.1.7 (alpha variant)
Type: cell-based
Conditions: 3 µM

For `N#C[C@@]1(c2ccc3c(N)ncnn23)O[C@H](CO)[C@@H](O)[C@H]1O` [GS-441524], the “Log vRNA” value was 4 and 4.2 and 4.3.
